Experimental data published in patent US7947280B2 (priority 2003, dated 2011).
Where “and” joins values, the source holds several entries; their conditions need not be identical. Equal values may be shown once. Entries after “also recorded” stand apart in the source; their conditions may differ.

Experiments:
C57B1/6 mice = test system: C57B1/6 mice
Method: Pressure-volume hemodynamics. Pressure-volume hemodynamics were assessed using the Aria System (Millar Instruments, Houston, Tex.). Male C57B1/6 mice aged 8-12 weeks (n=10) were anesthetized with 1-2% isoflurane in oxygen. The internal jugular vein was cannulated with PE tubing and a 10% albumin solution infused at 5 μl/min following a bolus of 150 μl over 5 minutes. After tracheotomy, a 19G cannula was inserted into the trachea and the animal was ventilated at a tidal volume of 200 μl at 100 breaths per minute (Harvard Apparatus, Holliston, Mass.). Mice were warmed throughout the procedure and constantly monitored for depth of anesthesia. Following an incision just dorsal to the xyphoid cartilage, the diaphragm was visualized from below, and after diaphragmatic incision, the left ventricular apex was visualized. The pressure-volume catheter was then inserted along the long axis of the left ventricle, from where it was adjusted to obtain rectangular shaped pressure-volume loops. Appropriate position was verified post mortem (FIG. 1, Panel D). […] Signals from the catheter were digitized using the Powerlab system (ADInstruments, Colorado Springs, Colo.) and stored for offline analysis using the PVAN software (Pressure-volume ANalysis, Millar Instruments, Houston, Tex.).
Data Analysis. Data were analyzed using Student's t statistic (paired) or the repeated measures analysis of variance using the post hoc comparison of Fisher (NCSS 2002). Exact p values are reported for all comparisons.

[1] = test system: Erk1/2 phosphorylation in HEK293 cells expressing AT1R; conditions: AngII, 5 and 15 minute timepoints
Method: Cell Culture, Transfections, and Stimulation Assays HEK293 cells were cultured in Dulbecco's modified Eagle's medium with 10% fetal bovine serum, 10 units/ml penicillin, and 100 μg/ml streptomycin. Transient transfection of the HEK293 cells was carried out using FuGene reagent per manufacturer's protocols in 6 well plates (Roche). […] For ERK phosphorylation, transfected HEK293 cells were serum starved for 3 hours and incubated with the agonist for designated times at 37 C. Cells were immediately lysed.

[2] = test system: superoxide production in aortic tissue of apoE knockout mice; assay: Lucigenin-enhanced chemiluminescence of aortic superoxide; assay type: in vivo, mouse; conditions: addition of apelin to AngII
Method: Lucigenin-enhanced chemiluminescence. Total aortic superoxide was measured by lucigenin-enhanced chemiluminescence as described previously. Aortas were harvested flushed with Krebs-HEPES buffer, opened longitudinally and divided into halves. Vessels were gassed with 95% oxygen/5% carbon dioxide in warmed Krebs-HEPES buffer for 30 minutes before measurements of chemiluminescence in a luminometer (manufacturer, location) using 20 μmol/L lucigenin. One half of each vessel was incubated in L-NAME (1 mmol/L). After measuring baseline readings for 4 minutes, samples were equilibrated and dark adapted for 5 mins, and chemiluminescence was recorded for 10 minutes. Recordings were performed blinded to the samples identity. Results were expressed as counts per second per milligram of tissue dry weight.

ApoE-KO mice = assay: Vein graft neointimal hyperplasia model; assay type: in vivo, mouse
Method: Animals. Mice were maintained in temperature-controlled (20° C. to 22° C.) environment with a 12-hour light-dark cycle. Sterile water and standard chow diet were available ad libitum. All mice were C57BL/6J ApoE-KO male mice (Jackson Laboratories, Bar Harbor, […].) between the ages of 8-12 weeks. […] Animal procedures were carried out in accordance with the Institutional Review Board Guidelines at Stanford University.

[3] = test system: mice given angiotensin II and isoproterenol infusions; assay: Neurohormonal cardiomyopathy model, echocardiography; assay type: in vivo, mouse; conditions: wild type mice
Method: Echocardiography. Two dimensional and M mode echocardiography was carried out using thea GE Vivid ultrasound platform with the small animal probe (13 MHz). […] After shaving of the anterior chest, mice were warmed using a heat lamp. Short axis views of the left ventricle were captured at the level of the papillary muscles in 2D and M modes. Analysis was carried out offline and fractional shortening calculated as [LVEDD−LVESD]/LVEDD where LVEDD is left ventricular end diastolic diameter (measured at the tip of the mitral valve leaflets) and LVESD is left ventricular end systolic diameter.
Neurohormonal cardiomyopathy model. […] All mice were age 12-14 weeks.

[4] = test system: superoxide production in aortic sections; assay: Dihydroethidium oxidative fluorescence microtopography; assay type: in vivo, mouse
Method: Oxidative fluorescent microtopography. Superoxide was detected in the layers of the vessel wall using fluorescent probe dihydroethidium as described previously. Fresh segments of upper descending thoracic aorta were frozen in OCT compound. […] Molecular Probes). Images were obtained on a confocal microscope (Bio-Rad MRC-1024 laser; filter settings: excitation filter 488 nm; emission filter 550 nm). 2-hydroxyethidium fluorescence was measured from high power (60× mag) images. Endothelium by quantifying fluorescence (intensity×area) on the luminal side of the internal elastic lamina, media between the internal and external elastic lamina, and adventitia outside the external elastic lamina. Quantification was performed using Image Pro Plus software (Media Cybernetics, Silver Springs, Md.). Medial Analysis was performed blind to the samples identity.

[5] = test system: NFκB, NFAT, AP-1 and SRE reporter constructs; assay: Luciferase reporter assays of AngII nuclear signaling in HEK-293 cells; assay type: cell-based
Description: cDNA Constructs APJ expression construct was purchased from cDNA.org. AT1R construct was obtained from Dr. Marc Caron. AT1R transcript was inserted into a pEGFP-N1 vector (Clonetech). The NF-kB and SRE luciferase reporter constructs were obtained from BD Biosciences.
Cells were immediately lysed.

rats = conditions: intravenous bolus injection in rats; Tatemoto et al., Lee et al.; cited from earlier work
AT1R = target: T1, AT1R (Rattus norvegicus, UniProt P25095); assay: Competitive ligand binding with FAM-labeled AngII in HEK-293 cells; conditions: unlabeled ligand 100 nM; HEK-293 cells transfected with AT1R
T1 construct: expressed in transfected cells; host or cells: HEK-293
T1 sequence (P25095 1-359): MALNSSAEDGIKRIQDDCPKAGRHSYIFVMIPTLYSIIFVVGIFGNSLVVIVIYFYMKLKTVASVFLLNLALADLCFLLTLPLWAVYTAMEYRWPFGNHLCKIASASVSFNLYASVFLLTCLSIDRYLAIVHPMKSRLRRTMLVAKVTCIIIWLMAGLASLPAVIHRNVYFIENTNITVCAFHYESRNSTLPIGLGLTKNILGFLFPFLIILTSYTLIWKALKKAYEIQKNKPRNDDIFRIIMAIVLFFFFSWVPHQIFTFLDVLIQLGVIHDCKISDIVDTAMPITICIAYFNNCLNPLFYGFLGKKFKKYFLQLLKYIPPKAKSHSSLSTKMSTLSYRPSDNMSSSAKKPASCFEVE

[6] = post 100 nM Apelin-12 infused at 5 μl/min for 20 minutes

apelin
Time constants of relaxation (C57B1/6 mice; after apelin infusion): not different | slope and intercept of linear fit of end diastolic pressure-volume relationship (C57B1/6 mice; after apelin infusion): not different | Arterial elastance (C57B1/6 mice; following apelin infusion): did not change significantly | dP/dtmax (C57B1/6 mice; following apelin infusion): did not change | end systolic pressure (C57B1/6 mice; following apelin infusion): reduced | EDV mean (C57B1/6 mice; [6]): 26.2 | Emax (time varying elastance) (C57B1/6 mice; [6]): 12.7±3.1 and 12.7 | HR mean (C57B1/6 mice; [6]): 353 | PRSW intercept mean (C57B1/6 mice; [6]): 11.3 | LV end diastolic volume (C57B1/6 mice; post apelin infusion): 26.2±5.9 RVU | constant k1 of monoexponential fit LVEDP=k1*exp(k2*LVEDV) (C57B1/6 mice; post apelin infusion): 0.111±0.002 | exponential k2 of monoexponential fit LVEDP=k1*exp(k2*LVEDV) (C57B1/6 mice; post apelin infusion): 0.69±0.41 | heart rate (C57B1/6 mice; post apelin infusion, invasive study): 353±33 bpm | phosphorylation of Erk1/2 [1]: dramatically reduced | AngII stimulated increase in total chemiluminescence [2]: abolished | reduction of mean vessel wall area (ApoE-KO mice; apelin added to AngII treated animals): 34% | reduction of mean vessel wall area vs saline treated controls (ApoE-KO mice; apelin, 4 weeks following vein graft surgery): 42% | heart failure phenotype ([3]; apelin infused concomitantly with angiotensin II and isoproterenol): completely abrogated; also recorded: abrogated completely; also recorded: ameliorates the heart failure phenotype completely | fractional shortening (post) ([3]; pyr-apelin-13 2 mg/kg/day with angiotensin II and isoproterenol, 7 day minipumps): 42.6±1.3% | aortic superoxide production vs AngII alone ([4]; apelin added to AngII treated mice): significantly reduced | Total aortic fluorescence, lower than saline treated controls ([4]; apelin treated mice): 3 fold | NFκB reporter activation stimulated by TNF-α and H2O2 ([5]; apelin treatment): In neither case did apelin diminish transcription; also recorded: not affected | AngII induced increase in reporter transcription ([5]; cells also treated with apelin): abrogated; also recorded: decreased activation | mean arterial pressure (rats): decrease | competition for binding of FAM-AngII (10 nM) to AT1R (AT1R): did not compete; also recorded: could not compete; also recorded: does not compete
